In US10829506B2, “Amino- or ammonium-containing sulfonic acid, phosphonic acid and carboxylic acid derivatives and their medical use” (GRI Bio, Inc., priority 2011, dated 2020):

Legend:
BALB/cJW mice = assay: Delayed-type hypersensitivity (DTH) reaction, mouse ear swelling; assay type: in vivo
Protocol: The anti-inflammatory and anti-allergic effects of compound 1a was assessed in a mouse model of skin delayed-type hypersensitivity (DTH) reactions and compared to a vehicle control and to the reference drug dexamethasone. DTH reactions are antigen-specific cell-mediated immune responses, driven primarily by T helper type 1 (Th1) cells, similar to the tuberculin immunization response. The immune reaction induced by an ovalbumin challenge to animals previously sensitized with ovalbumin in Complete Freund's Adjuvant, is characterized by swelling (edema) at the site of challenge, e.g. the mouse ear. Dexamethasone, an anti-inflammatory steroid, reduces cell-mediated immune responses and was employed to validate the responsiveness of the assay to pharmacological treatment.
Female BALB/cJW mice were bred at the University of Lodz, Lodz, Poland and housed in groups of 8 in makrolon cages with a 12 h light-dark cycle. Mice were given free access to food (Agropol S. j., Motycz, Poland) and water.
Group size was n=8 mice unless otherwise stated. Test compound was freshly prepared before administration.
Sensitization: The protein antigen, ovalbumin, was reconstituted in PBS at 4 mg/ml. […] The emulsion was tested by putting a drop of emulsion onto PBS; if the emulsion remained as a light droplet on the PBS, the emulsion was deemed ready. […]
Challenge: On the sixth day after sensitization, DTH was elicited by challenging animals subcutaneously (gauge 30 needle, B. Braun Melsungen, Melsungen, Germany) in the left ears with 10 μL of a 1% suspension of heat-aggregated ovalbumin (HOVA) (100 μg ovalbumin per mouse). […] Ear thickness was measured with a precise spring-loaded caliper (Art. No, 7309, Mltutoyo, Kawasaki, Japan) before challenge, and 24 h after challenge. […]
To account for individual variability, the increase in right ear thickness, before and 24 h after administration of PBS, was subtracted from the HOVA-induced increase in left ear thickness. The increase in ear thickness was calculated by the difference between ear thickness before and 24 h after antigen challenge. […]

RBL-2H3 cells = assay: Maximum tolerated concentration (cytotoxicity by lactate dehydrogenase release); assay type: cell-based, rat
Excerpt: A commercially available cytotoxicity test was used (Promega Cytotox-One cat. #67891).
The safety index (SI) of a test compound Is the ratio between the maximum tolerated concentration and the 1C50 and is used as a measure of the relative safety of the test compound.

[1] = Body weight and toxic side-effects in the DTH study; assay type: in vivo, mice; conditions: oral
Protocol: Three hours after the last dose, the antigen challenge was performed on the ears as described above. Dexamethasone was given at 1 mg/kg orally by gavage 3 h before sensitization and once daily with the final dose given 3 h prior to antigen challenge (a total of 7 administrations). All administrations were given in a volume of 10 mL/kg.
Such high dosing (overdose) is, however, not suitable for treatment of humans due to severe side effects of the corticosteroid and was only used to validate the responsiveness of the model.

**Q.** Which results are given for `CCCCCCCCCCCCCC[N+](C)(C)CCCS(=O)(=O)[O-]` [Compound 1a, 3-(N,N-Dimethylmyristylammonio)-Propanesulfonate]?
**A.** Inhibition of DTH response relative to that of a high dose of dexamethasone (BALB/cJW mice; 1a oral vs dexamethasone 1 mg/kg): 65%; Inhibition of mouse ear swelling (DTH response) (BALB/cJW mice; oral, 1a 100 mg/kg (loading dose, then maintenance doses), dexamethasone 1.0 mg/kg once daily, 24 h after ovalbumin challenge): 32%; MTC (maximum tolerated concentration) (RBL-2H3 cells; highest concentration not causing cytotoxicity, LDH release): 100 µM; SI (safety index, ratio MTC/IC50) (RBL-2H3 cells; ratio between maximum tolerated concentration and IC50): 31.3; Toxic side-effects during the course of the study [1]: no toxic side-effects
